Measurements taken from patent US20210321638A1, “ANIMAL FEED AND METHODS TO PROVIDE SUCH FEED” (Nutreco Nederland B.V., priority 2016, published 2021).

Experiments:
Salmonella typhimurium = experiment: in vitro adhesion of bacteria to coated 96-well plate, time to onset OD600; format: cell-based; details: Table 4, Example 4; total amount of agents the same in all experiments; control 6.95
Description: Example 1 describes an in vitro model study for assessing the effect of ABM mycelium on bacterial adhesion. In this method the adhesion of Salmonella typhimurium to ABM mycelium is assessed.
(§1) Use was made of a 96-well plate on which the ABM mycelium was coated. For this, the ABM mycelium (in this and each case below a fermented rye product was actually used, in which product the amount of ABM mycelium was about 15% w/w) was suspended in PBS to a final concentration of 1% (w/v) and mixed thoroughly. Subsequently the suspension was centrifuged to remove insoluble material. Thereafter, the supernatant was used for coating the wells of the microtiter plate. For the adhesion assessment, a Salmonella typhimurium suspension was added to the microtiter plate. The plate was then incubated for 30 minutes and after this incubation step washed with PBS. Subsequently growth medium was added to the wells and the time to onset OD600 value was determined. The optical density (OD) measurement was used as a tool to compare numbers of adhered bacteria to the coated wells of the 96-well plate with different compounds. The initial cell density of adhered bacteria correlates with the time-dependent detection of the growth by optical density measurement.
In a second in vitro study, the test was repeated, and additionally the effect on Salmonella enteritidis and E. coli was measured. […]

E. coli = experiment: as above; format: cell-based, Escherichia coli
Text: as §1
In a second in vitro study, the test was repeated, and additionally the effect on Salmonella enteritidis and E. coli was measured. Also, the amount of ABM mycelium was used in the full amount (see above; denoted “100%”), half of this amount (“50%”) and a quarter of this amount (“25%”). […]

OC[C@H]1O[C@@H](O[C@H]2[C@H](O)[C@H](O)C(O)O[C@@H]2CO)[C@@H](O)[C@@H](O)[C@@H]1O (stereo partly drawn) [β-1,4-mannobiose]
time to onset OD600, S. typhimurium (Salmonella typhimurium): 5.90 h | effect on the adhesion of E. coli / onset OD600, in words (E. coli; Example 4, compared to the control and β-1,4-mannobiose alone): does not have an effect | time to onset OD600, E. coli (E. coli; Table 4, Example 4, total amount of agents the same in all experiments, control 7.10): 7.30 h
